These are literature values, as cited in paper PMC6253886, “Prodrugs of Thyrotropin-Releasing Hormone and Related Peptides as Central Nervous System Agents” (Molecules, 2009).

Read-outs that look alike come from different tables or passages of the source. Marks after values point to notes of the source that are not given here. [ ]: non-standard residue; d: D form. The star is where a group is joined. O(cholesteryl) = CC(C)CCC[C@@H](C)[C@H]1CC[C@H]2[C@@H]3CC=C4C[C@@H](O*)CC[C@]4(C)[C@H]3CC[C@]12C; pGlu = O=C1CC[C@@H](C(=O)O)N1; Dht = not defined here

Data set [1] relates to mice. The conditions noted are these: for % Decrease in Sleeping Time / Sleeping time (min): pentobarbital 60 mg/kg i.p. 10 min later; for % Decrease in Sleeping Time: percent of vehicle sleeping time (54.9 ±3.8 min); for Analeptic Effect: % Decrease in Sleeping Time / Sleeping time (min): 10 µmol/kg i.v.; for Analeptic Effect: % Decrease in Sleeping Time: percent decrease vs saline vehicle counted as 100%; for Sleeping time (min): saline vehicle 80±2 min. Here is the method: Table 1 Barbiturate-induced sleeping times in mice after the administration of [Leu^2]TRH and its produgs having various spacers (S). Sleeping time decrease is expressed as percent of sleeping time for vehicle administration only (54.9 ±3.8 min). […] Values are expressed as percent decrease compared to those of saline vehicle that was counted as 100%. *Statistically significant difference from saline control (ANOVA followed by Dunnett’s, P < 0.05, n=6–16). Repri | column: Analeptic Effect:% Decrease in Sleeping Time || (+ 5 further places)

The conditions of data set [2]: rodents and humans. Here is the method:
(§1) Studies in rodents and humans have shown that this tripeptide has a very short (6–10 min) half-life in plasma. The rapid degradation in this medium is mainly due to the action of pyroglutamyl aminopeptidases. Additionally, this highly hydrophilic molecule (logP = –2.46) also lacks its own active BBB transport system; thus, high doses of the peptide unavoidably manifesting a profound and undesired hormonal (endocrine) effect would be required for CNS application. Therefore, dissociation of endocrine and CNS actions of TRH is a crucial issue in designing TRH analogues a ...

How the values of data set [3] were obtained: as §1, with “... || A centrally selective natural analogue of TRH is [Leu^2]TRH (pGlu-Leu-Pro-NH2, Figure 1), in which the central His of TRH is replaced with Leu. […] Therefore, we selected this tripeptide for substantiating our brain-targeting prodrug approach. […] The amino- and carbox ...” for “...”
For data set [4] the following is noted: IAMC. An excerpt:
We utilized again the robust ... || (+ 2 further places)

This is another data set of the same source.
Data set [5] deals with receptor labeled by [3H][3-Me-His2]TRH. The settings on record: [3H][3-Me-His2]TRH-labeled receptor, rat brain pellets. From the text:
(§2) Replacement of [His^2] practically aboli ...

For data set [6] the following is noted: mouse plasma.
From the text: as §2

The test system of data set [7] is mice. The conditions noted are these: 3 µmol/kg i.v., percent decrease vs saline vehicle counted as 100%, n=6–16. From the text:
Table 4 Comparison of analeptic (equimolar dose of 10 µmol/kg body weight, i.v.) and antidepressant (equimolar dose of 3 of µmol/kg body weight, i.v) effects of test compounds in mice. Values are expressed as percent decrease compared to those of saline vehicle that was counted as 100%. *Statistically significant difference from saline control (ANOVA followed by Dunnett’s, P < 0.05, n=6–16). Repri | column: Porsolt Swim Test:% Decrease in Immobility

Data set [8] concerns the target TRH receptor (Rattus norvegicus) (UniProt Q01717). The data set can be described thus: radioligand competition. (In a radioligand displacement assay an active substance lowers the binding of a labelled ligand.)
In data set [9] the test system is triiodothyronine (T3) levels. The settings on record: review statement. From the text:
(§3) Many pharmacological activities of this peptide are similar to those of TRH [54]; however, the beneficial effects after treatment with [Glu^2]TRH are reportedly more robust or prolonged. These advantages are probably due to the increased resistance of this peptide to enzymes principally responsible for the rapid degradation of TRH in vivo [40].

The next data set relates to TRH receptors. The conditions noted are these: review statement.
From the text: as §3

The text on data set [10]: A centrally selective natural analogue of TRH is [Leu^2]TRH (pGlu-Leu-Pro-NH2, Figure 1), in which the central His of TRH is replaced with Leu. […] Therefore, we selected this tripeptide for substantiating our brain-targeting prodrug approach. […] The amino- and carbox ...
This is another data set of the same source.

Setting [11] is: k’IAM = (tR-t0)/t0, t0 = retention time of [Glu^2]TRH as dead-volume marker.

Sequence of TRH (P01150 whole entry, looked up): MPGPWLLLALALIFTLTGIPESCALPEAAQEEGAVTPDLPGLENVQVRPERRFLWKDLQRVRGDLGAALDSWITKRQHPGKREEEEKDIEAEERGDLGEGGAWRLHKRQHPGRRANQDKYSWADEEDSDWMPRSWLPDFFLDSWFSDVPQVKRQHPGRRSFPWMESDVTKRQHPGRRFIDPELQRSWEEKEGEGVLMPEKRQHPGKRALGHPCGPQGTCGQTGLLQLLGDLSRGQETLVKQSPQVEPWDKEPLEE
Sequence of TRH receptor (Rattus norvegicus) (Q01717 whole entry): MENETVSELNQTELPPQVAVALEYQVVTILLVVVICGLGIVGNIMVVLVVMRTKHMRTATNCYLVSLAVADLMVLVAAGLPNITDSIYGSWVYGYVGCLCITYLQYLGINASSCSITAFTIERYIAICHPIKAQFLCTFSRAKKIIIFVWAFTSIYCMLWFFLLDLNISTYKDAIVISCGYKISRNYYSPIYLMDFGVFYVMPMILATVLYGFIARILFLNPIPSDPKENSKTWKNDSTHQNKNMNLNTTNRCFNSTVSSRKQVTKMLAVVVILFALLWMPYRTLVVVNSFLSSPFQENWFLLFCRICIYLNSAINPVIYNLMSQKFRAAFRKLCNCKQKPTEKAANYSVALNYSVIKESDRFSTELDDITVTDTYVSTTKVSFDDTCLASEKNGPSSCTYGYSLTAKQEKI

Consider “pGlu-His-Pro-NH2 [TRH, thyrotropin-releasing hormone, native tripeptide]”, for which, in the data set with mice [1] (15 µmol/kg i.v., pentobarbital 60 mg/kg i.p. given 60 min post drug vs 10 min, Figure 6), the “duration of the analeptic action, in words” value is reported as “loss of over half of CNS-activity”. The half-life in plasma in [2] is 6 to 10 min. In addition, in [3] (logarithm of the n-octanol/water partition coefficient, review, no reference given for the value), the logP result is reported as “–2.46”. Besides, in data set [4] (TRH, pyridinium analogues and their prodrugs), the “k’IAM” value was 0.51. The half-life (mouse brain homogenate (20%, w/v)) is reported as 16 min and the half-life in data set [6] is on record as 11 min. The binding affinity in data set [5] is reported as 42 nM.

For the substance “Dht-Glu(OH)-Pro-NH2 [neutral prodrug without the ester function on the side-chain of the central residue]”, the “improvement of affinity to membrane lipids compared to the ionic analogue” value in [4] was “three- to five-fold”. Further, the “k’IAM” value in data set [4] ([Trig^1] analogue prodrugs) is listed as 0.4.

Take “Prodrug, S= Pro-Pro: [Leu^2]TRH brain-targeting prodrug: Dht attached through spacer Pro-Pro to Gln-Leu-Pro-Gly, carboxy-terminus esterified with cholesterol (Dht-PPQLPG-{O(cholesteryl)}; reading uncertain)”: the “% Decrease in Sleeping Time” value in the data set with mice [1] (15 µmol/kg i.v.) was 55 ± 7** %.

For the substance “Prodrug, S= Pro: [Leu^2]TRH brain-targeting prodrug: Dht attached through spacer Pro to Gln-Leu-Pro-Gly, carboxy-terminus esterified with cholesterol (Dht-PQLPG-{O(cholesteryl)}; reading uncertain)”, the “% Decrease in Sleeping Time” value in the data set on mice [1] (15 µmol/kg i.v.) was 47 ± 6** %.

As for “Trig-Glu(OHex)-Pro-NH2 [hexyl ester of the designed [Trig^1] analogue of [Glu^2]TRH]”, the “Analeptic Effect: % Decrease in Sleeping Time” value (from here on “Analeptic Effect: % Decrease”) with mice [1] (n=6–16) is reported as 1±3%. Moreover, the “pharmacological (analeptic) response, in words” value in the data set on mice [1] (i.v., ionic compound without reduction of Trig to Dht) is “no pharmacological response was observed”. Further, in the data set with mice [7], the “Porsolt Swim Test: % Decrease in Immobility” value (shortened to “Porsolt Swim Test: % Decrease”) is reported as 2±1%.

On to Dht-Glu(OHex)-Pro-NH2, for which the “Analeptic Effect: % Decrease” value in the data set with mice [1] (n=6–16) is listed as 18 ± 2%; in the data set on mice [1] (n=6–16, listed as Dht-Glu(OHex)–Pro-NH2), 18±2* %. The “Porsolt Swim Test: % Decrease” value in the data set with mice [7] was 43±3* %. In addition, the “k’IAM” value in [4] ([Trig^1] analogue prodrugs) is recorded as 28.6. For the same substance, where the note is “mouse”, the “t1/2 of hydrolysis of the ester” value was 27 min.

Take “Prodrug, S= Ala-Ala: [Leu^2]TRH brain-targeting prodrug: Dht attached through spacer Ala-Ala to Gln-Leu-Pro-Gly, carboxy-terminus esterified with cholesterol (Dht-AAQLPG-{O(cholesteryl)}; reading uncertain)”: the “% Decrease in Sleeping Time” value in the data set with mice [1] (15 µmol/kg i.v.) is given as 32 ± 4* %.

Take pGlu-Glu(OHex)-Pro-NH2 [R=Hex]: in the data set with mice [1], the “Sleeping time (min)” value is on record as 50±2** min. Besides, the “Analeptic Effect: % Decrease” value with mice [1] (n=6–16) is given as 37±3* %. Besides, in the data set on mice [1] (i.v.), the “ED50 (analeptic effect, dose-response)” value was “around 2 µmol/kg body weight”. In addition, the “Porsolt Swim Test: % Decrease” value in the data set with mice [7] was 44±2* %. Besides, in [4] (setting [11]), the “k’IAM” value is reported as 16.0. Besides, under “mouse”, the “t1/2” value is around 22 min.

Regarding TRH (from UniProt P01150), the Ki in [8] was 42 nM.

In the case of “[pGlu]-Glu-Pro-NH2 [[Glu^2]TRH, TRH-like endogenous tripeptide, reference compound]”, the “Sleeping time (min)” value in the data set with mice [1] was 65±3* min. Further, in [4] (setting [11]), the “k’IAM” value was 0. The “effect on triiodothyronine (T3) levels, in words” value in data set [9] is on record as “does not elevate triiodothyronine (T3) levels”. The “binding to TRH receptors, in words” value in the data set with TRH receptors is “practically does not bind to TRH receptors”.

For “[pGlu]-Leu-Pro-NH2 [[Leu^2]TRH, reference compound]”, in the data set with mice [1] (15 µmol/kg i.v.), the “% Decrease in Sleeping Time” value is 17 ± 7%. Also, the logP result in data set [3] is “–1.67”. In [10], the “increase in typical TRH-associated analeptic effect compared to TRH” value is “approximately 2.5 fold”.

For the substance “Prodrug, S= Pro-Ala: [Leu^2]TRH brain-targeting prodrug: Dht attached through spacer Pro-Ala to Gln-Leu-Pro-Gly, carboxy-terminus esterified with cholesterol (Dht-PAQLPG-{O(cholesteryl)}; reading uncertain)”, in the data set on mice [1] (15 µmol/kg i.v.), the “% Decrease in Sleeping Time” value is recorded as 56 ± 4** %.

On to “Prodrug, S= Ala: [Leu^2]TRH brain-targeting prodrug: Dht attached through spacer Ala to Gln-Leu-Pro-Gly, carboxy-terminus esterified with cholesterol (Dht-AQLPG-{O(cholesteryl)}; reading uncertain)”, for which the “% Decrease in Sleeping Time” value in the data set with mice [1] (15 µmol/kg i.v.) is 30 ± 3* %.

The term half-life denotes the time needed for the level to fall by half in the phase considered. As a reminder, the Ki is the dissociation constant of the complex between target and ligand, obtained from inhibition or displacement.
